From patent publication US20260115144A1, “THERAPEUTIC NANOPARTICLES ENCAPSULATING TERPENOIDS AND/OR CANNABINOIDS” (priority 2018, published 2026)

Legend:
[1] = Loss of myrcene during lyophilization for 24 h (weighing); type: physicochemical; conditions: lyophilized for 24 h; starting weight 8 or 48 mg
Method: To investigate whether myrcene is lost during lyophilization, 3 samples of either free myrcene, a mixture of myrcene and water, or a mixture of myrcene, water and PLGA were prepared in duplicate as illustrated in Table 16. Samples were lyophilized for 24 h. The vials containing the samples were weighed before and after lyophilization to calculate the weight of the dried sample.

[2] = cited from earlier work
[3] = molecular target: TRPV1 (Homo sapiens, UniProt Q8NER1); conditions: described in PCT/US2018/033956; cited from earlier work
Chain of TRPV1 (Q8NER1 whole entry, species assumed): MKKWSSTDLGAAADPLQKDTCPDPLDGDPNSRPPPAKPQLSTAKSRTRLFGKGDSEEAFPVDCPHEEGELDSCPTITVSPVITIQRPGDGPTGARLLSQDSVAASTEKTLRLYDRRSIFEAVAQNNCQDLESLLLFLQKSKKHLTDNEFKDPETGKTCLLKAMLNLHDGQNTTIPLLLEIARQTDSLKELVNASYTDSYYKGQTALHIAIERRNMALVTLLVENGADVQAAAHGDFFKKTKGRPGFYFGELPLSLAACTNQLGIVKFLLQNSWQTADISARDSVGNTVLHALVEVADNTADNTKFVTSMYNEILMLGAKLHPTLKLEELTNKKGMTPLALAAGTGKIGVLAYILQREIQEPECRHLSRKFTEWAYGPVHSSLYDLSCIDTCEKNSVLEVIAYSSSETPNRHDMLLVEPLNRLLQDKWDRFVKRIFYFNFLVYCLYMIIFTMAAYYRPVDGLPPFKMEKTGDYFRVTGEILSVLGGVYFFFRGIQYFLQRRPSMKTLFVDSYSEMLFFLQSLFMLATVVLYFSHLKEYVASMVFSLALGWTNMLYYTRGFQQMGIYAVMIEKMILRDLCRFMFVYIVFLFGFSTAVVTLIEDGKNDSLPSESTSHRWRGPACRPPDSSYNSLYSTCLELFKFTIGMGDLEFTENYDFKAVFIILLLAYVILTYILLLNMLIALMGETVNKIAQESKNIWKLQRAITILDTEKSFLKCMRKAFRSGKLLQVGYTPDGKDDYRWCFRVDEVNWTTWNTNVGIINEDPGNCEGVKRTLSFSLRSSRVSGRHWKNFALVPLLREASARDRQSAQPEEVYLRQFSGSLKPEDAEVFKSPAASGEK

[4] = molecular target: T1, TRPV1 receptors (Rattus norvegicus, UniProt O35433); experiment: Calcium signaling assay (Fluo-4) in HEK TRPV1 cells; type: cell-based; conditions: 40 μg/ml, 1 h
T1 construct: expressed in transfected cells; host or cells: HEK TRPV1 cells (Helen Turner lab, Chaminade University of Honolulu), kept under geneticin
T1 sequence (O35433 whole entry): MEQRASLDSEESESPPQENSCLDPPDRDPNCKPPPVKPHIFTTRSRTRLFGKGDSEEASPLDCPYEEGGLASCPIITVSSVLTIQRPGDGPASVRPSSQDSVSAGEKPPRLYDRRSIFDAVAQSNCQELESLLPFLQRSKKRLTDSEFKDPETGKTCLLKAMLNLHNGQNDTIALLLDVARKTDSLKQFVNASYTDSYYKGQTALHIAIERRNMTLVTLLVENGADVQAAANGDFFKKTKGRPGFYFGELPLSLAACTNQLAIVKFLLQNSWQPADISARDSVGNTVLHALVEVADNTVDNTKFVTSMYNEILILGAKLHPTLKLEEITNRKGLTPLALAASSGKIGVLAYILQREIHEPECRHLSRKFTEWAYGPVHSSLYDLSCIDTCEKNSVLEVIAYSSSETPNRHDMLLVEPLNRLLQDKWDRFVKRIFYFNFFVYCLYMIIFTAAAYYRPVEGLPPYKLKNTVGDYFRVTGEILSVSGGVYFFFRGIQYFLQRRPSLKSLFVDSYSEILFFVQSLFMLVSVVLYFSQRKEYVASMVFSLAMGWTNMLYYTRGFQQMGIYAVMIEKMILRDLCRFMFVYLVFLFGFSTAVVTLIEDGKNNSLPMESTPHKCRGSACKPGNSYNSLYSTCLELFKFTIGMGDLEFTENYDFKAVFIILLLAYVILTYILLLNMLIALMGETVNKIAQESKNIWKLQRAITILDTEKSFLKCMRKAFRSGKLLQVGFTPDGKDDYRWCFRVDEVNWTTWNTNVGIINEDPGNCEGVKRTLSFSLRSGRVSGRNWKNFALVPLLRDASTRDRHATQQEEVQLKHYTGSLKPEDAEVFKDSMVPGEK
Method: HEK TRPV1 cells were provided by the Helen Turner lab at Chaminade University of Honolulu and maintained in MEM essential medium supplemented with 10% FBS, 50 units/ml-50 μg/ml Penicillin-Streptomycin, and 0.6 mg/ml geneticin.
HEK TRPV1 cells were harvested with trypsin, deactivated with media, and counted. Cells were centrifuged at 1000 rpm, for 5 min, at room temperature. Cells were washed twice with 1 mM Ca Assay Buffer (Na Ringers [140 mM NaCl, 2.8 mM KCl, 2 mM MgCl2, 11 mM glucose, 10 mM HEPES], 2 mM Probenecid, 1 mM CaCl2); pH 7.4), and collected by centrifugation at 1000 rpm, for 5 min, at room temperature. Cells were resuspended in 1 μM Fluo-4 (1 μl of 5 mM Fluo-4, mixed with 1 μl of 20% Pluronic F-127 in DMSO, then 5 ml of 1 mM Ca Assay Buffer was added and the mixture incubated at 37° C. for 10 min in the dark), and incubated for 30 min at 37° C. in the dark. Cells were then washed twice with 1 mM Ca assay buffer, then resuspended in the assay buffer and pipetted to opaque-walled 96-well plates at a density of 150,000 cells/180 μl/well. Fluorescence was measured using a plate reader (Synergy HTX, BioTek, USA), at an excitation wavelength of 485 nm and an emission wavelength of 528 nm. Once a baseline was established (3 measurements), 20 μl of the stimulant (free terpenoids, terpenoids-loaded NPs, and controls) solution was added to each well and measurement was continued for 1 h with one read every 40 seconds.
All solutions were prepared in 1 mM Ca Assay Buffer. Free terpenoids were first dissolved in DMSO, then a specific volume was diluted with the assay buffer to produce the required concentration. […]
A calcium signaling assay was utilized to evaluate the ion influx into HEK TRPV1 cells. Cells were dispersed in 1 mM calcium assay buffer and the intracellular calcium levels were measured using a plate reader in the presence of Fluo-4, as the fluorophore. […] Fluorescence changes in response to the free terpenoids, encapsulated terpenoids, and combinations of free and encapsulated terpenoids were detected and compared.

SMILES | Weight after lyophilization [1] | Vapor pressure ([2]; at 25° C.) | Solubility in water [2] | TRPV1 agonist activity [3] | Calcium response (fluorescence change), non-encapsulated individual terpenoids [4]
C=CC(=C)CCC=C(C)C [Formula F42] | 0.88 mg |  |  |  | 
C=CC(=C)CCC=C(C)C [myrcene, 7-methyl-3-methylideneocta-1,6-diene] |  | 2.09 mm Hg | not soluble in water | TRPV1 agonist that causes TRPV1 desensitization after prolonged exposure | most intense response
C=CC(C)(O)CCC=C(C)CCC=C(C)C (stereo not shown) [nerolidol, 3,7,11-Trimethyl-1,6,10-dodecatrien-3-ol] |  |  |  |  | induced a calcium response
C=C1CC/C=C(\C)CC[C@@H]2[C@@H]1CC2(C)C [β-caryophyllene, (1R,4E,9S)-4,11,11-Trimethyl-8-methylidenebicyclo[7.2.0]undec-4-ene] |  |  |  |  | lowest calcium responses
